# According to article PMC11468213, “Ionic Liquid‐Mediated Transdermal Delivery of Thrombosis‐Detecting Nanosensors” (Advanced Healthcare Materials, 2022):
# Legend:
# [1] = Dynamic light scattering size analysis of nanosensors in CAGE; type: physicochemical
# Description: (§1) To assess the solubility, stability, and activity of our nanosensors in CAGE, we conjugated a thrombin substrate (–GGfPRSGGG–) to 40 kDa PEG nanoparticles at an 8:1 substrate:nanoparticle ratio. The substrates were flanked by 5‐carboxyfluorescein (5‐FAM) and a Förster resonance energy transfer quencher molecule (CPQ2) in close proximity, such that proteolytic cleavage would result in fluorescence signal (nanoparticle was denoted as TDN‐qFAM, Figure 1A). […] In addition, the colloidal stability of TDN‐qFAM was assessed by the absorption spectrum of TDN‐qFAM in the presence and absence of CAGE after 24 h of room temperature storage (Figure 1C). […]
# (§2) The CAGE and TDNs coformulation was prepared by addition of 1 mL of CAGE onto 1 mg of conjugated PEG powder, followed by iterative short mixing and ultrasonication steps until a clear solution was observed. […] Size analysis was performed in dynamic light scattering (ZetaSizer), and absorbance spectra were obtained in Tecan Spectrophotometer. For in vitro cleavage assays, recombinant thrombin (10 × 10^−9 M working concentration) was mixed with TDN‐Q in CAGE (30%) solution (10 × 10^−6 M by peptide), and cleavage was monitored by fluorescence at 535 nm of dequenched 5‐carboxyfluorescein (5‐FAM). […]
# [2] = Colloidal stability by absorption spectrum after storage; type: physicochemical; details: presence and absence of CAGE; 24 h room temperature storage; absorbance spectrum
# Description: as §1, §2
# recombinant thrombin = recombinant thrombin (Homo sapiens, UniProt P00734); assay: Fluorescence dequenching cleavage assay with recombinant thrombin; type: biochemical; details: fluorescence at 535 nm, triplicate
# Description: To assess the solubility, stability, and activity of our nanosensors in CAGE, we conjugated a thrombin substrate (–GGfPRSGGG–) to 40 kDa PEG nanoparticles at an 8:1 substrate:nanoparticle ratio. The substrates were flanked by 5‐carboxyfluorescein (5‐FAM) and a Förster resonance energy transfer quencher molecule (CPQ2) in close proximity, such that proteolytic cleavage would result in fluorescence signal (nanoparticle was denoted as TDN‐qFAM, Figure 1A). […] In addition, the colloidal stability of TDN‐qFAM was assessed by the absorption spectrum of TDN‐qFAM in the presence and absence of CAGE after 24 h of room temperature storage (Figure 1C). […] We then investigated whether the presence of CAGE components influenced the stability of the peptide substrate and the activity of thrombin against TDN‐qFAM. […] However, upon stepwise dilution of CAGE with phosphate buffered saline (PBS), the functionality of TDN‐qFAM against thrombin cleavage was improved.
# Figure 1 A) Chemical components of CAGE ionic liquid and schematic representation of TDN‐qFAM nanoparticles with thrombin substrate sequence. B) Dynamic light scattering and C) absorbance spectra of TDN‐qFAM in PBS and CAGE solutions. […]) Fluorescence dequenching experiment for enzyme cleavage kinetics in the presence (empty circles) and absence (full circles) of recombinant thrombin in the TDN‐qFAM/CAGE solution. […]
# endogenous thrombin = target: T1, endogenous thrombin (Mus musculus, UniProt P19221); assay: Cleavage kinetics in mouse serum at different CAGE concentrations; type: biochemical; details: 37 °C, fluorescence
# T1 construct: The cleavage study was carried out in mouse serum obtained from Sigma Aldrich; tissue Sigma Aldrich; host or cells: mouse serum
# [3] = Ex vivo skin penetration, Franz diffusion cell, porcine skin; type: in vitro ADME; details: 300 µL, 37 °C, 24 h
# Procedure: Porcine skin samples were placed on Franz diffusion cells, and the diffusion of TDN‐qFAM nanoparticles was tested with different concentrations of CAGE present in the formulation.
# Figure 5 A) Confocal microscopy image of a paraffin‐embedded porcine skin section after 24 h of topical administration of TDN‐qFAM in 100% CAGE. Left: bright field; right: fluorescence image. Scale bar: 200 µm. B) Quantitative results of nanoparticles found in ex vivo porcine skin layers using Franz diffusion cell set‐up with different CAGE concentrations. (mean ± s.d., n = 3 independent skin slices).
# The skin penetration studies were undertaken using porcine skin in Franz diffusion cells, as described previously in full.^[ [23] ^] Briefly, thawed porcine skin (CBSET, Lexington MA) or mouse skin removed from Swiss Webster strain was placed in a diffusion cell with the stratum corneum facing upwards. The acceptor component of the cell was filled with PBS and equipped with a magnetic stirrer bar. 300 µL was placed on top of the skin, ensuring full coverage. The diffusion cell was placed on a stirrer plate at 37 °C for 24 h, at which point the skin was removed and the surface washed gently with PBS. For quantitative analysis, the stratum corneum was removed by tape stripping (ten layers), the epidermis was separated from the dermis with a scalpel, and a 4 mm punch was used thrice to remove a third of the dermis (by area). The tissue was then placed into a 50% methanol/PBS mixture, and left to shake overnight at RT to extract the drug. 100 µL of the extracted fluid was then placed into a black Corning 96‐well plate and analyzed using a i3 SpectraMax plate reader, with excitation wavelength of 750 nm and an emission wavelength of 775 nm. For the confocal microscopy, the skin was affixed to a cryostat stage with fixing compound and 20 µm slices were taken using a cryostat (Leica CM1950, Leica, Germany). The slices of skin were placed on negatively charged slides (Fisher Scientific, Pittsburgh, PA, USA) and imaged using a confocal microscope (Upright Zeiss LSM 710 NLO) with a 10× air objective.
# [4] = Ex vivo skin penetration, Franz diffusion cell, mouse skin; type: in vitro ADME, mouse (Swiss Webster); details: 37 °C, 24 h, fluorescence, n = 3 skin samples
# Procedure: Next, we validated the skin penetration of the nanosensors by coformulating unquenched, 5‐FAM labelled, thrombin substrate‐conjugated PEG nanoparticles (TDN‐FAM, Table S1, Supporting Information) and 30% CAGE solution. Ex vivo conditions were established by incubating TDN‐FAM/CAGE with mouse skin samples that were stabilized in a Franz diffusion cell set‐up.^[ [14], [15] ^] Three main layers of skin samples, namely stratum corneum, viable epidermis, and dermis, as well as the PBS solution underneath the skin (acceptor solution), were collected, and nanosensor concentration was quantified via fluorescence spectroscopy.
# Figure 2 A) Quantification of TDN‐FAM extracted from different layers of mouse skin via fluorescence readout. SC: Stratum Corneum. […]
# The skin penetration studies were undertaken using porcine skin in Franz diffusion cells, as described previously in full.^[ [23] ^] […] For quantitative analysis, the stratum corneum was removed by tape stripping (ten layers), the epidermis was separated from the dermis with a scalpel, and a 4 mm punch was used thrice to remove a third of the dermis (by area). […] 100 µL of the extracted fluid was then placed into a black Corning 96‐well plate and analyzed using a i3 SpectraMax plate reader, with excitation wavelength of 750 nm and an emission wavelength of 775 nm. […]
# [5] = test system: acute pulmonary embolism mouse model; assay: Urinary reporter detection of thrombosis in thromboplastin-injected acute pulmonary embolism mouse model; type: in vivo, Swiss Webster mice; details: for ROC AUC: n = 5 per group
# Description: Next, we sought to assess whether transdermally delivered nanosensors could detect disease in this model. Thrombin substrate flanked by near‐IR dye, Cy7, was conjugated to PEG nanoparticles (TDN‐Cy7), were solvated in 30% CAGE and administered topically to Swiss Webster mice. The TDN‐Cy7 nanoparticles were designed such that cleavage of the thrombin substrate would liberate a renally clearable fragment with Cy7 that could enable quantification in the urine by fluorescence. Concomitant quantification of plasma‐borne TDN‐Cy7 was performed to normalize the urine signal in order to mitigate the mouse‐to‐mouse variation that may arise due to the heterogeneous skin conditions present across individual subjects. Thromboplastin was intravenously administered to mice at different time points after topical administration of CAGE/TDN solution on the dorsal skin. Urine collection was performed 30 min after thromboplastin injection, and fluorescence measurement was carried out to detect reporter peptides in the urine. […] These finding indicate that topical administration with CAGE achieves circulatory delivery of nanosensors that enable sustained, noninvasive monitoring of thromboembolism in vivo as opposed to bolus injection into the blood.
# Figure 4 A) Urinary reporter concentrations relative to plasma TDN‐Cy7 concentrations for thromboplastin‐injected (Thrombosis) and healthy control mice at different time points after nanosensor administration (mean ± s.d., n = 5 mice per group; *P < 0.05 and **P < 0.01, two‐tailed Mann–Whitney's […]). […] C) Urinary reporter concentrations in healthy versus thrombosis mice 6 h after intravenous injection of TDN‐Cy7 (mean ± s.d., n = 5 mice per group; ns: not significant). D) ROC curve calculated from data at panel (C) (AUC = 0.60).
# For urine detection of thrombosis, 10 µL of CAGE (30%) containing TDN‐Cy7 nanosensor (4nmoles by peptide) was administered onto previously shaved dorsal skin of Swiss Webster mice, which were subsequently returned to their cages. At different time points postadministration, thromboplastin (0.75 µL g^−1 bodyweight of 4 mg mL^−1 stock in PBS) was injected intravenously, and both urine and blood (retroorbital draw) were collected 30 min p.i. Plasma is collected similar to the pharmacokinetic study and both urine and plasma were stored at −80 °C. Cleaved peptide reporters in the urine was quantified with fluorescence of Cy7 (Excitation 750 nm, emission 790 nm). Plasma levels of TDN‐Cy7 were similarly quantified using fluorescence and used for normalizing the urine signals.
substance,measurement,setting,value
"5FAM-GGfPRSGGGK(CPQ2)-(EG)2-C-[8armPEG] [TDN‐qFAM, Quenched thrombosis detecting nanosensors: 5-FAM/CPQ2-flanked thrombin substrate peptide conjugated to 40 kDa 8-arm PEG nanoparticles]","aggregation associated size increase (>100 nm), dynamic light scattering","[1]; 30% CAGE solution vs PBS, ZetaSizer",did not exhibit any significant aggregation associated size increase
same,mean hydrodynamic size when dissolved in CAGE,"[1]; CAGE vs PBS, dynamic light scattering",slight increase
same,absorption maximum at 495 nm (5-FAM) after storage,[2],virtually unchanged
same,cleavage in the absence of recombinant enzyme,"recombinant thrombin; 30% CAGE alone, no thrombin",no cleavage was observed
same,cleavage (fluorescence dequenching) with recombinant thrombin,"recombinant thrombin; 30% CAGE, thrombin 10 × 10^-9 M, nanosensor 10 × 10^-6 M by peptide",clear cleavage profile with gradual increase in fluorescence intensity
same,endogenous thrombin activity against nanosensor in mouse serum,"endogenous thrombin; 30% CAGE, n = 3 measurements",partially hindered
same,functionality against thrombin cleavage in mouse serum on dilution of CAGE,"endogenous thrombin; stepwise dilution of CAGE with PBS (5%, 1%, 0.1%, 0%), n = 3",improved
same,penetration into porcine skin,"[3]; 30% CAGE, fluorescence, n = 3 skin slices",slight increase in penetration
same,amount transported into porcine skin,"[3]; in PBS, acceptor PBS, fluorescence",negligible amount
same,penetration through porcine skin,"[3]; undiluted (100%) CAGE, fluorescence and confocal microscopy, n = 3 skin slices",dramatically improved penetration
"5FAM-GGfPRSGGGK-(EG)2-C-[8armPEG] [TDN‐FAM, Unquenched 5-carboxyfluorescein conjugated thrombosis detecting nanosensors on 8-arm PEG]",signal in dermis layer and acceptor solution,"[4]; 30% CAGE vs PBS, 300 µL, acceptor PBS",markedly increased signal
same,recovery from dermis and acceptor layers,[4]; 50% CAGE vs 30% CAGE,even higher recovery
"Cy7-GGfPRSGGGK-(EG)2-C-[8armPEG] [TDN‐Cy7, Unquenched Cy7 conjugated thrombosis detecting nanosensors on 8-arm PEG]",ROC AUC,[5]; 6 h after intravenous injection,0.60
same,amount of reporter in urine vs healthy background,"[5]; intravenous injection 6 h before thromboplastin, n = 5",not significantly different from healthy background
same,"urinary reporter signal, diseased vs healthy mice","[5]; topical 30% CAGE, 4 nmoles by peptide, thromboplastin 6 h after administration, urine 30 min later, normalised to plasma, n = 5, P = 0.0079",significantly increased
same,ROC AUC,"[5]; topical 30% CAGE, 6 h after nanosensor administration",1.00
same,ROC AUC,"[5]; topical 30% CAGE, 12 h after nanosensor administration",1.00
same,ROC AUC,"[5]; topical 30% CAGE, 24 h after nanosensor administration",0.96
same,ROC AUC,"[5]; topical 30% CAGE, 48 h after nanosensor administration",0.84
same,ROC AUC,"[5]; topical 30% CAGE, 72 h after nanosensor administration",0.72
same,diagnostic power of urinary reporter,"[5]; topical 30% CAGE, thrombosis induced at 12 h, n = 5",retained their diagnostic power
same,diagnostic power of urinary reporter,"[5]; topical 30% CAGE, thrombosis induced at 24 hours, n = 5",retained their diagnostic power
same,discrimination of diseased from healthy mice,"[5]; topical 30% CAGE, thrombosis induced at 48 hours, n = 5",could not discriminate diseased from healthy mice
same,discrimination of diseased from healthy mice,"[5]; topical 30% CAGE, thrombosis induced at 72 hours, n = 5",could not discriminate diseased from healthy mice
